Assay results as given in patent US20120095063A1, “METHODS AND COMPOSITIONS FOR TREATMENT OF ISCHEMIC CONDITIONS AND CONDITIONS RELATED TO MITOCHONDRIAL FUNCTION” (priority 2009, published 2012).

Experiments:
[1] = tested on: human skeletal muscle myocytes (HSKM cells); test: Oxygen consumption rate in primary human skeletal muscle myocytes; format: cell-based; conditions: 48 hours, 300 nM FCCP
Procedure: Measured endogenous rates of respiration reflect the net balance between rates of energy utilization, energy production, and mitochondrial uncoupling. This was followed by induction of resting (State 4o) respiration with the addition of 1 uM oligomycin to inhibit ATP synthase. State 4 respiration is primarily determined by the rate of proton leak across the inner mitochondrial membrane. Maximal respiration was then assessed by the addition of 300 nM FCCP, a chemical uncoupler of oxidative phosphorylation. In intact cells, this rate reflects the maximal rates of substrate oxidation and electron transport chain activity. An increase in maximal rates can reflect changes in the regulation or expression level of oxidative enzymes, electron transport chain components, or total mitochondrial mass. […] As a control, nonmitochondrial O2 consumption was measured after the addition of 100 nM rotenone and 100 nM myxothiazol to completely block the respiratory chain.
Respiration of the intact cells was measured in unbuffered DMEM containing 10 mM glucose, 10 mM pyruvate, and 2 mM glutamine. In panel A, endogenous respiration was measured on HSKM cells, followed by state 4 (resting) respiration with the addition of 1 uM oligomycin (indicated as ‘A’), and then maximal rates were measured after the addition of 300 nM FCCP, a chemical uncoupler (indicated as ‘B’). […]

[2] = tested on: electron transport chain proteins; test: Western blot of mitochondrial electron transport chain proteins in C2C12 cells; format: cell-based, mouse; conditions: 1 μM, 48 hours
Description: Western blots of cell lysates were used to assess levels of mitochondrial to determine if improved respiration is due to enhanced mitochondrial biogenesis.

[3] = tested on: myocardial ischemia-reperfusion (IR) injury; test: Infarct size in rat model of myocardial ischemia-reperfusion (IR) injury; format: in vivo; conditions: 45 min ischemia, Epi 0.5 mg/kg and/or Nico 33 f× g/kg IV, repeated low dose, infarct size 48 h after IR
Procedure: The general methods for the implementation of the rat myocardial IR model are detailed elsewhere. The total time of myocardial ischemia was 45 min Dx-EPI (3 mg/kg) was mixed in saline solution and given IV via the jugular vein. Control animals received dextran saline solution injections. Infarct size was examined 48 h after IR using established procedures.
The general methods for the implementation of the rat myocardial IR model are described herein. The total time of myocardial ischemia was 45 min Treatment was administered a total of 1, 2 or 3 times. The initial dose was given15 min prior to reperfusion and then at 12 (in the case of 2× and 3× dosing) and again at 24 h (in the case of 3× dosing) after reperfusion. Epi (0.5 mg/kg) and/or Nico (33 f× g/kg) were mixed in water and given IV using the jugular vein. Control animals only received water injections. Infarct size was examined 48 h after IR using established procedures.

[4] = tested on: mitochondrial swelling (damage) induced by high calcium; test: Calcium-induced mitochondrial swelling, EPI and NICO co-treatment, isobolographic analysis; format: biochemical; conditions: rat left ventricle mitochondria; 33 μM CaCl2; 535 nm, 30 min
Procedure: To determine the effect that (-)-epicatechin (EPI) and nicorandil (NICO) co-treatment has on mitochondrial swelling (damage) induced by high calcium, EPI or NICO, and EPI+NICO protective effects against calcium induced mitochondrial damage (swelling), were evaluated by monitoring changes in optical density (OD, light absorbance): Hearts from male rats were excised and weighed. Left ventricles were homogenized (0.1 g/mL) in solution A (Sucrose 2M, EDTA 0.01M, Hepes 0.5M: pH=7.4), centrifuged 10 min (800×g), 4° C., the supernatant was centrifuged 10 min (8000×g), 4° C. and the pellet was re-suspended in solution B (Sucrose 2M, EDTA 0.01M, Tris 0.5M-H2PO4-50 mM: pH=7.4) and centrifuged 10 min (10000×g), 4° C. Pellet was re-suspended in 10 mL of solution C (Sucrose 2M, EDTA 0.01M, Tris 0.5M-H2PO4-50 mM, Succinate 1M: pH=7.4. 33 μM of CaCl2 was then, added in order to induce mitochondrial […] (swelling measured through absorbace changes at 535 nm, monitored continuosly during 30 min Dose-response effects on mitochondrial swelling to EPI and NICO treatment were pursued.

Compound | stimulating mitochondrial function (maximal, uncoupler-stimulated respiration) [1] | expression level of the 20 kDa subunit of complex I [2] | reduction of infarct size vs. controls [3] | effect on calcium-induced mitochondrial damage (swelling) [4]
catechin | active | clearly increased |  | 
O=C(NCCO[N+](=O)[O-])c1cccnc1 [nicorandil, N-[2-(Nitroxy)ethyl]-3-pyridinecarboxamide] | active |  | 37% | can limit
Oc1cc(O)c2c(c1)O[C@H](c1ccc(O)c(O)c1)[C@H](O)C2 [Epicatechin, (−)-epicatechin] |  |  | 27% | 
